Values after ≈ are worked out from the molar mass of the structure shown. Read-outs that look alike come from different tables or passages of the source.
What was measured:
Type in all cases: cell-based
A. fumigatus ATCC204305 = assay: Antifungal activity test, MIC by broth microdilution (CLSI M38-A2)
Protocol: (§1) The Minimum Inhibitory Concentration (MIC) values of the present compound against yeast and filamentous fungi were determined by broth microdilution assay according to the Clinical Laboratory Standards Institute (CLSI) guidelines outlined in documents M27-A3 and M38-A2. The medium used in the assay consisted of RPMI1640 (with glutamine, without bicarbonate) with 2% glucose and 0.165 mol/L morpholinepropanesulfonic acid (MOPS) with pH adjusted to 7.0 using 1 mol/L sodium hydroxide. The present compound was dissolved in dimethyl sulfoxide (DMSO). A series of two-fold dilutions were prepared in DMSO, and then 2 μL of the diluted compound was added to each well in 96-well sterile plates. Each inoculum was prepared by diluting a suspension of Candida spp. or a conidia suspension of Aspergillus spp. suspended in sterile saline solution, and then 200 μL was added to each well to a predetermined concentration using RPMI/MOPS (final concentration for each solution: approximately 1×10^3 cells/mL and approximately 1×10^4 CFU/mL). Plates of Candida spp. and Aspergillus spp. were incubated at 35° C. for 24-48 hours. The MIC was defined as the lowest concentration giving 100% inhibition compared to the growth control.

A. flavus ATCC204304 = assay: as above
Protocol: as §1

C. albicans ATCC90028 = assay: Antifungal activity test, MIC by broth microdilution (CLSI M27-A3)
Protocol: as §1

[1] = A. fumigatus ATCC204305, broth microdilution, 35° C., 24-48 hours, 100% inhibition
[2] = A. flavus ATCC204304, broth microdilution, 35° C., 24-48 hours, 100% inhibition
[3] = C. albicans ATCC90028, broth microdilution, 35° C., 24-48 hours, 100% inhibition

Row | Compound | MIC (A. fumigatus ATCC204305; [1]) [µg/mL] | MIC (A. flavus ATCC204304; [2]) [µg/mL] | MIC (C. albicans ATCC90028; [3]) [µg/mL] | also measured
1 | C[C@@H]1[C@H](O)[C@@H](C)/C=C/C=C/C=C/C=C/C=C/C=C/C=C/[C@H](O[C@@H]2O[C@H](C)[C@@H](O)[C@H](N)[C@@H]2O)C[C@@H]2O[C@](O)(C[C@@H](O)C[C@@H](O)[C@H](O)CC[C@@H](O)C[C@@H](O)CC(=O)O[C@H]1C)C[C@H](O)[C@H]2NC(=O)NCC(N)=O [I-90] | 0.5 (≈ 0.502 µM) | 0.5 (≈ 0.502 µM) | 0.25 (≈ 0.251 µM) | 
2 | C[C@@H]1[C@H](O)[C@@H](C)/C=C/C=C/C=C/C=C/C=C/C=C/C=C/[C@H](O[C@@H]2O[C@H](C)[C@@H](O)[C@H](N)[C@@H]2O)C[C@@H]2O[C@](O)(C[C@@H](O)C[C@@H](O)[C@H](O)CC[C@@H](O)C[C@@H](O)CC(=O)O[C@H]1C)C[C@H](O)[C@H]2NC(=O)NC[C@@H](O)CO [I-119] | 1 (≈ 0.988 µM) | 0.5 (≈ 0.494 µM) | 0.25 (≈ 0.247 µM) | 
3 | C[C@@H]1[C@H](O)[C@@H](C)/C=C/C=C/C=C/C=C/C=C/C=C/C=C/[C@H](O[C@@H]2O[C@H](C)[C@@H](O)[C@H](N)[C@@H]2O)C[C@@H]2O[C@](O)(C[C@@H](O)C[C@@H](O)[C@H](O)CC[C@@H](O)C[C@@H](O)CC(=O)O[C@H]1C)C[C@H](O)[C@H]2NC(=O)NCC(=O)NC(CO)CO [I-155] | 1 (≈ 0.935 µM) | 0.5 (≈ 0.468 µM) | 0.5 (≈ 0.468 µM) | 
4 | C[C@@H]1[C@H](O)[C@@H](C)/C=C/C=C/C=C/C=C/C=C/C=C/C=C/[C@H](O[C@@H]2O[C@H](C)[C@@H](O)[C@H](N)[C@@H]2O)C[C@@H]2O[C@](O)(C[C@@H](O)C[C@@H](O)[C@H](O)CC[C@@H](O)C[C@@H](O)CC(=O)O[C@H]1C)C[C@H](O)[C@H]2NC(=O)NCC(=O)NCC#N [I-157] | 1 (≈ 0.967 µM) | 0.5 (≈ 0.483 µM) | 0.5 (≈ 0.483 µM) | 
5 | C[C@@H]1[C@H](O)[C@@H](C)/C=C/C=C/C=C/C=C/C=C/C=C/C=C/[C@H](O[C@@H]2O[C@H](C)[C@@H](O)[C@H](N)[C@@H]2O)C[C@@H]2O[C@](O)(C[C@@H](O)C[C@@H](O)[C@H](O)CC[C@@H](O)C[C@@H](O)CC(=O)O[C@H]1C)C[C@H](O)[C@H]2NC(=O)NCC1CN(CCO)C1 [I-158] | 1 (≈ 0.951 µM) | 1 (≈ 0.951 µM) | 0.25 (≈ 0.238 µM) | 
6 | C[C@@H]1[C@H](O)[C@@H](C)/C=C/C=C/C=C/C=C/C=C/C=C/C=C/[C@H](O[C@@H]2O[C@H](C)[C@@H](O)[C@H](N)[C@@H]2O)C[C@@H]2O[C@](O)(C[C@@H](O)C[C@@H](O)[C@H](O)CC[C@@H](O)C[C@@H](O)CC(=O)O[C@H]1C)C[C@H](O)[C@H]2NC(=O)NCC1CN(C)C1 [I-159] | 1 (≈ 0.979 µM) | 0.5 (≈ 0.49 µM) | 0.25 (≈ 0.245 µM) | 
7 | C[C@@H]1[C@H](O)[C@@H](C)/C=C/C=C/C=C/C=C/C=C/C=C/C=C/[C@H](O[C@@H]2O[C@H](C)[C@@H](O)[C@H](N)[C@@H]2O)C[C@@H]2O[C@](O)(C[C@@H](O)C[C@@H](O)[C@H](O)CC[C@@H](O)C[C@@H](O)CC(=O)O[C@H]1C)C[C@H](O)[C@H]2NC(=O)NC[C@H](N)CO [I-162] | 1 (≈ 0.989 µM) | 1 (≈ 0.989 µM) | 0.25 (≈ 0.247 µM) | 
8 | CC1C=CC=CC=CC=CC=CC=CC=CC(OC2OC(C)C(O)C(N)C2O)CC2OC(O)(CC(O)CC(O)C(O)CCC(O)CC(O)CC(=O)OC(C)C(C)C1O)CC(O)C2NC(=O)NCC(N)CCO (stereo not drawn) [I-163] | 1 (≈ 0.975 µM) | 1 (≈ 0.975 µM) | 0.25 (≈ 0.244 µM) | 
9 | C[C@@H]1[C@H](O)[C@@H](C)/C=C/C=C/C=C/C=C/C=C/C=C/C=C/[C@H](O[C@@H]2O[C@H](C)[C@@H](O)[C@H](N)[C@@H]2O)C[C@@H]2O[C@](O)(C[C@@H](O)C[C@@H](O)[C@H](O)CC[C@@H](O)C[C@@H](O)CC(=O)O[C@H]1C)C[C@H](O)[C@H]2NC(=O)NC1CN(CCO)C1 [I-165] | 1 (≈ 0.964 µM) | 1 (≈ 0.964 µM) | 0.25 (≈ 0.241 µM) | 
10 | C[C@@H]1[C@H](O)[C@@H](C)/C=C/C=C/C=C/C=C/C=C/C=C/C=C/[C@H](O[C@@H]2O[C@H](C)[C@@H](O)[C@H](N)[C@@H]2O)C[C@@H]2O[C@](O)(C[C@@H](O)C[C@@H](O)[C@H](O)CC[C@@H](O)C[C@@H](O)CC(=O)O[C@H]1C)C[C@H](O)[C@H]2NC(=O)N1CC(O)C1 [I-166] | 1 (≈ 1.01 µM) | 0.5 (≈ 0.503 µM) | 0.25 (≈ 0.251 µM) | 
11 | C[C@@H]1[C@H](O)[C@@H](C)/C=C/C=C/C=C/C=C/C=C/C=C/C=C/[C@H](O[C@@H]2O[C@H](C)[C@@H](O)[C@H](N)[C@@H]2O)C[C@@H]2O[C@](O)(C[C@@H](O)C[C@@H](O)[C@H](O)CC[C@@H](O)C[C@@H](O)CC(=O)O[C@H]1C)C[C@H](O)[C@H]2NC(=O)NC(CN)CO (stereo partly drawn) [I-169] | 1 (≈ 0.989 µM) | 1 (≈ 0.989 µM) | 0.25 (≈ 0.247 µM) | 
12 | C[C@@H]1[C@H](O)[C@@H](C)/C=C/C=C/C=C/C=C/C=C/C=C/C=C/[C@H](O[C@@H]2O[C@H](C)[C@@H](O)[C@H](N)[C@@H]2O)C[C@@H]2O[C@](O)(C[C@@H](O)C[C@@H](O)[C@H](O)CC[C@@H](O)C[C@@H](O)CC(=O)O[C@H]1C)C[C@H](O)[C@H]2NC(=O)N1CC(N(C)C)C1 [I-189] | 0.5 (≈ 0.49 µM) | 0.5 (≈ 0.49 µM) | 0.25 (≈ 0.245 µM) | 
13 | C[C@@H]1[C@H](O)[C@@H](C)/C=C/C=C/C=C/C=C/C=C/C=C/C=C/[C@H](O[C@@H]2O[C@H](C)[C@@H](O)[C@H](N)[C@@H]2O)C[C@@H]2O[C@](O)(C[C@@H](O)C[C@@H](O)[C@H](O)CC[C@@H](O)C[C@@H](O)CC(=O)O[C@H]1C)C[C@H](O)[C@H]2NC(=O)NCC1(CO)COC1 [I-193] | 1 (≈ 0.963 µM) | 0.5 (≈ 0.482 µM) | 0.25 (≈ 0.241 µM) | 
14 | C[C@@H]1[C@H](O)[C@@H](C)/C=C/C=C/C=C/C=C/C=C/C=C/C=C/[C@H](O[C@@H]2O[C@H](C)[C@@H](O)[C@H](N)[C@@H]2O)C[C@@H]2O[C@](O)(C[C@@H](O)C[C@@H](O)[C@H](O)CC[C@@H](O)C[C@@H](O)CC(=O)O[C@H]1C)C[C@H](O)[C@H]2NC(=O)NCC1(C(=O)O)CC1 [I-202] | 1 (≈ 0.965 µM) | 0.5 (≈ 0.483 µM) | 0.5 (≈ 0.483 µM) | 
15 | C[C@@H]1[C@H](O)[C@@H](C)/C=C/C=C/C=C/C=C/C=C/C=C/C=C/[C@H](O[C@@H]2O[C@H](C)[C@@H](O)[C@H](N)[C@@H]2O)C[C@@H]2O[C@](O)(C[C@@H](O)C[C@@H](O)[C@H](O)CC[C@@H](O)C[C@@H](O)CC(=O)O[C@H]1C)C[C@H](O)[C@H]2NC(=O)NNC[C@H](O)CO [I-227] | 1 (≈ 0.974 µM) | 0.5 (≈ 0.487 µM) | 0.5 (≈ 0.487 µM) | 
16 | C[C@@H]1[C@H](O)[C@@H](C)/C=C/C=C/C=C/C=C/C=C/C=C/C=C/[C@H](O[C@@H]2O[C@H](C)[C@@H](O)[C@H](N)[C@@H]2O)C[C@@H]2O[C@](O)(C[C@@H](O)C[C@@H](O)[C@H](O)CC[C@@H](O)C[C@@H](O)CC(=O)O[C@H]1C)C[C@H](O)[C@H]2NC(=O)N1C[C@H](O)CC1C(=O)O (stereo partly drawn) [I-230] | 1 (≈ 0.95 µM) | 0.5 (≈ 0.475 µM) | 0.5 (≈ 0.475 µM) | 
17 | C[C@@H]1[C@H](O)[C@@H](C)/C=C/C=C/C=C/C=C/C=C/C=C/C=C/[C@H](O[C@@H]2O[C@H](C)[C@@H](O)[C@H](N)[C@@H]2O)C[C@@H]2O[C@](O)(C[C@@H](O)C[C@@H](O)[C@H](O)CC[C@@H](O)C[C@@H](O)CC(=O)O[C@H]1C)C[C@H](O)[C@H]2NC(=O)N1C[C@@H](O)[C@H](O)C1 [I-260] |  |  |  | MIC (A. fumigatus ATCC204305; Aspergillus fumigatus, A. fumigatus ATCC204305, broth microdilution, 35° C., 24-48 hours, 100% inhibition, read-out: MIC): 1 µg/mL (≈ 0.976 µM); MIC (A. flavus ATCC204304; Aspergillus flavus, A. flavus ATCC204304, broth microdilution, 35° C., 24-48 hours, 100% inhibition, read-out: MIC): 0.5 µg/mL (≈ 0.488 µM); MIC (C. albicans ATCC90028; Candida albicans, C. albicans ATCC90028, broth microdilution, 35° C., 24-48 hours, 100% inhibition, read-out: MIC): 0.5 µg/mL (≈ 0.488 µM)
18 | C[C@@H]1[C@H](O)[C@@H](C)/C=C/C=C/C=C/C=C/C=C/C=C/C=C/[C@H](O[C@@H]2O[C@H](C)[C@@H](O)[C@H](N)[C@@H]2O)C[C@@H]2O[C@](O)(C[C@@H](O)C[C@@H](O)[C@H](O)CC[C@@H](O)C[C@@H](O)CC(=O)O[C@H]1C)C[C@H](O)[C@H]2NC(=O)N(C)O [I-266] | 0.5 (≈ 0.516 µM) | 0.5 (≈ 0.516 µM) | 0.25 (≈ 0.258 µM) | 
19 | C[C@@H]1[C@H](O)[C@@H](C)/C=C/C=C/C=C/C=C/C=C/C=C/C=C/[C@H](O[C@@H]2O[C@H](C)[C@@H](O)[C@H](N)[C@@H]2O)C[C@@H]2O[C@](O)(C[C@@H](O)C[C@@H](O)[C@H](O)CC[C@@H](O)C[C@@H](O)CC(=O)O[C@H]1C)C[C@H](O)[C@H]2NC(=O)N(O)CC(N)=O [I-273] |  |  |  | MIC (A. fumigatus ATCC204305; Aspergillus fumigatus, ATCC204305): 0.5 µg/mL (≈ 0.494 µM); MIC (A. flavus ATCC204304; Aspergillus flavus, ATCC204304): 0.5 µg/mL (≈ 0.494 µM); MIC (C. albicans ATCC90028; Candida albicans, ATCC90028): 0.25 µg/mL (≈ 0.247 µM)

Source: patent US10696707B2, “Polyene macrolide derivative” (Shionogi & Co., Ltd., priority 2014, dated 2020)
